One may read the IC50 as the concentration that gives 50% inhibition.

This is an account of results in patent US7868188B2, “5-heteroaryl thiazoles and their use as PI3K inhibitors” (AstraZeneca AB, priority 2004, dated 2011).

Where a name gives a salt, the structure may show the parent alone.

This test deals with phosphorylation of Serine 473 in Akt (MDA-MB-468 cells). In words: Test (c) In Vitro phospho-Ser473 Akt Assay. It counts as cell-based. The settings on record: Homo sapiens, read-out: IC50 versus Serine 473 in Akt. On the procedure: This assay determines the ability of test compounds to inhibit phosphorylation of Serine 473 in Akt as assessed using Acumen Explorer technology (Acumen Bioscience Limited), a plate reader that can be used to rapidly quantitate features of images generated by laser-scanning.
A MDA-MB-468 human breast adenocarcinoma cell line (LGC Promochem, Teddington, Middlesex, UK, Catalogue No. HTB-132) was routinely maintained at 37° C. with 5% CO2 up to a confluency of 70-90% in DMEM containing 10% heat-inactivated FCS and 1% L-glutamine.
For the assay, the cells were detached from the culture flask using ‘Accutase’ (Innovative Cell Technologies Inc., San Diego, Calif., USA; Catalogue No. AT104) using standard tissue culture methods and resuspended in media to give 1.7×10^5 cells per ml. Aliquots (90 μl) were seeded into each of the inner 60 wells of a black Packard 96 well plate (PerkinElmer, Boston, Mass., USA; Catalogue No. 6005182) to give a density of ˜15000 cells per well. Aliquots (90 μl) of culture media were placed in the outer wells to prevent edge effects. The cells were incubated overnight at 37° C. with 5% CO2 to allow them to adhere.
On day 2, the cells were treated with test compounds and incubated for 2 hours at 37° C. with 5% CO2. Test compounds were prepared as 10 mM stock solutions in DMSO and serially diluted as required with growth media to give a range of concentrations that were 10-fold the required final test concentrations. Aliquots (10 μl) of each compound dilution were placed in a well (in triplicate) to give the final required concentrations. As a minimum response control, each plate contained wells having a final concentration of 100 μM LY294002 (Calbiochem, Beeston, UK, Catalogue No. 440202). As a maximum response control, wells contained 1% DMSO instead of test compound. Following incubation, the contents of the plates were […] by treatment with a 1.6% aqueous formaldehyde solution (Sigma, Poole, Dorset, UK, Catalogue No. F1635) at room temperature for 1 hour.
All subsequent aspiration and wash steps were carried out using a Tecan 96 well late washer (aspiration speed 10 mm/sec). The fixing solution was removed and the contents of the plates were washed with phosphate-buffered saline (PBS; 50 μl; Gibco, Catalogue No. 10010015). The contents of the plates were treated for 10 minutes at room temperature with an aliquot (50 μl) of a cell permeabilisation buffer consisting of a mixture of PBS and 0.5% Tween-20. […] An aliquot of PBS (50 μl) was added to each well and the plates were sealed with black plate sealers and the fluorescence signal was detected and analysed.
Fluorescence dose response data obtained with each compound were analysed and the degree of inhibition of Serine 473 in Akt was expressed as an IC50 value.

On to `CC(=O)Nc1nc(C)c(-c2cnc(Cl)c(NCc3ccc(F)cc3)c2)s1` [Compound No. 3 within Example 79, N-{5-[6-Chloro-5-(4-fluorobenzylamino)pyridin-3-yl]-4-methyl-1,3-thiazol-2-yl}acetamide], for which the IC50 is approximately 200 nM. As for `CC(=O)Nc1nc(C)c(-c2cnc(Cl)c(S(=O)(=O)Nc3ccccc3)c2)s1` [Compound No. 4 within Example 73, N-{5-[6-Chloro-5-(N-phenylsulfamoyl)pyridin-3-yl]-4-methyl-1,3-thiazol-2-yl]acetamide], the IC50 is approximately 200 nM.

For the compound `CC(=O)Nc1nc(C)c(-c2cnc(Cl)c(NS(C)(=O)=O)c2)s1` [Example 28, N-[5-(6-Chloro-5-methylsulfonylaminopyridin-3-yl)-4-methyl-1,3-thiazol-2-yl]acetamide trifluoroacetate], the half-maximal inhibitory concentration (IC50) was approximately 300 nM.
